Laboratory results reported in patent US7547806B2, “Tannate salt of rasagiline” (Teva Pharmaceutical Industries, Ltd., priority 2006, dated 2009).

Experiments:
Format in all cases: physicochemical
[1] = Water content by thermal gravimetric analysis (TGA); conditions: solid product
Experimental: (§1) Thermal gravimetric analysis (TGA) was applied for measuring amounts of volatiles (residual solvents and water) in the solid. Water content was measured by Karl Fischer method (KF).

[2] = Water content by Karl Fischer method (KF); conditions: solid product
Experimental: as §1

[3] = Hygroscopicity after one month storage in closed containers; set-up: key: 1: non-hygroscopic, no visible change observed; 2: slightly hygroscopic, aggregation and lumping developed, loss of flowability; 3: hygroscopic, semi-solid material; 4: deliquescent, liquefied syrup-like product; conditions: after one month in closed containers at room temperature in atmospheric air (relative humidity ~50-80%)
Experimental: The hygroscopicity was determined after one month in closed containers at room temperature in atmospheric air (relative humidity ˜50-80%)
The observed samples could be divided into four groups in accordance to their hygroscopic properties:
1=non-hygroscopic, no visible change observed
2=slightly hygroscopic, aggregation and lumping developed, loss of flowability
3=hygroscopic, semi-solid material
4=deliquescent, liquefied syrup-like product

## C#CCN[C@@H]1CCc2ccccc21 [Rasagiline base, R(+)-N-propargyl-l-aminoindan]
[1]
  Water content, % By TGA: < 0.1%
[2]
  Water content, % By KF: 0.1%
[3]
  Hygroscopicity: 1
